In patent publication US6653081B2, “Methods for monitoring antiretroviral therapy and guiding therapeutic decision in the treatment of HIV/AIDS” (ViroLogic, Inc., priority 2000, dated 2003):
“And” between values parts separate entries of the source, which are not always exact repeats. Equal values may be shown once.

How the values were obtained:
RTV-013522/270I = assay: Phenotypic susceptibility assay, RTV-013522/270I; format: cell-based, HIV; conditions: RTV-013522 with I270S reverted
From the text: (§1) The resistance test vectors containing a functional luciferase gene cassette were constructed and host cells were transfected with the resistance test vector DNA. The resistant test vectors contained patient-derived reverse transcriptase and protease sequences that were either susceptible or resistant to the antiretroviral agents, such as nucleoside reverse transcriptase inhibitors, (NRTIs) non-nucleoside reverse transcriptase inhibitors […] protease inhibitors. The resistance test vector viral particles produced by transfecting the resistance test vector DNA into host cells, either in the presence or absence of PRIs, were used to infect target host cells grown either in the absence of NRTIs or NNRTIs, or in the presence of increasing concentrations of the drug. The amount of luciferase activity produced in infected target host cells in the presence of varying concentrations of drug was compared to the amount of luciferase produced in infected target host cells in the absence of drug. “Drug resistance” was measured as the amount of drug required to inhibit by 50% the luciferase activity detected in the absence of drug (inhibitory concentration 50%, IC50). The IC50 values were determined by plotting percent drug inhibition vs. log10 drug concentration. Stimulation of viral replication was measured as the percent increase in luciferase activity detected when infection occurs in the presence of drug as compared to in the absence of drug.
(§2) Host cells were seeded in 10-cm-diameter dishes and were transfected several days after plating with resistance test vector plasmid DNA and the envelope expression vector. Transfections were performed using a calcium-phosphate precipitation procedure. The cell culture media containing the DNA precipitate was replaced with fresh medium, from one to 24 hours, after transfection. Cell culture media containing resistance test vector viral particles was harvested one to four days after transfection and was passed through a […] filter before being used to infect target host cells, or being stored at −80° C. HIV capsid protein (p24) levels in the harvested cell culture media were determined by an EIA method as described by the manufacturer (SAIC; Frederick, Md.). Before infection, target cells (293 and 293/T) were plated in cell culture media. Control infections were performed using cell culture media from mock transfections (no DNA) or transfections containing the resistance test vector plasmid DNA without the envelope expression plasmid. One to three or more days after infection, the media was removed and cell lysis buffer (Promega) was added to each well. Cell lysates were assayed for luciferase activity (FIG. 3). The inhibitory effect of the drug was determined using the following equation:
(§3) % luciferase inhibition=1−(RLUluc[drug]÷RLUluc)×100
(§4) where RLUluc [drug] is the Relative Light Unit of luciferase activity in infected cells in the presence of drug, and RLUluc is the Relative Light Unit of luciferase activity in infected cells in the absence of drug. IC50values were obtained from the sigmoidal curves that were generated from the data by plotting the percent inhibition of luciferase activity vs. the log10 drug concentration. The percent luciferase stimulation is the negative of the % inhibition calculated using the formula above.
A resistance test vector containing all of the mutations present in […] except for the I270S (RTV-013522/270I) was constructed and tested using the phenotypic assay described earlier. The results were compared to those determined using the parent RTV-013522. We determined the pattern of phenotypic susceptibility to the NNRTIs, delavirdine, nevirapine and efavirenz, in the reverted vector RTV-013522/270I. […] In this patient sample the correlation of drug-dependent stimulation of viral replication with the mutation at I270S is very striking. […]

RTV-K103N/I135T/V245T = assay: Phenotypic susceptibility assay, RTV-K103N/I135T/V245T; format: cell-based, HIV-1; conditions: site-directed K103N + I135T + V245T
From the text: as §1, §2, §3, §4
(§5) A resistance test vector containing three mutations, K103N, I135T and V245T (RTV-K103N/I135T/V245T) was constructed and tested in the phenotypic assay described earlier. The results were compared to those determined using a genetically defined resistance test vector that was wild type at positions 103, 135 and 245. We determined the pattern of phenotypic susceptibility to the NNRTIs, delavirdine, nevirapine and efavirenz, in RTV-K103N.

[1] = test system: RTV-1033-3/283L/284R/286T; assay: Phenotypic susceptibility assay, RTV-1033-3/283L/284R/286T; format: cell-based, HIV; conditions: RTV-1033-3 with L283I, R284K and T286A reverted
From the text: as §1, §2, §3, §4
(§6) A resistance test vector containing all of the mutations present in RTV-1033-3 except for L283I, R284K and T286A (RTV-1033-3/283L/284R/286T) was constructed and tested using the phenotypic assay described earlier. The results were compared to those determined using the parent RTV-1033-3. We determined the pattern of phenotypic susceptibility to the NNRTIs, delavirdine, nevirapine and efavirenz, in the reverted vector, RTV-1033-3/283L/284R/286T.

RTV-1033-3/181C = assay: Phenotypic susceptibility assay, RTV-1033-3/181C; format: cell-based, HIV; conditions: RTV-1033-3 plus Y181C
From the text: as §1
Host cells were seeded in 10-cm-diameter dishes and were transfected several days after plating with resistance test vector plasmid DNA and the envelope expression vector. Transfections were performed using a calcium-phosphate precipitation procedure. […] HIV capsid protein (p24) levels in the harvested cell culture media were determined by an EIA method as described by the manufacturer (SAIC; Frederick, Md.). […] The inhibitory effect of the drug was determined using the following equation: […]
where RLUluc [drug] is the Relative Light Unit of luciferase activity in infected cells in the presence of drug, and RLUluc is the Relative Light Unit of luciferase activity in infected cells in the absence of drug. […] The percent luciferase stimulation is the negative of the % inhibition calculated using the formula above.
as §6, with “RTV-1033-3, in addition to Y181C (RTV-1033-3/181C)” for “RTV-1033-3 except for L283I, R284K and T286A (RTV-1033-3/283L/284R/286T)”, “mutated” for “reverted”, “RTV-1033-3/181C.” for “RTV-1033-3/283L/284R/286T.”

RTV-014397 = assay: Phenotypic susceptibility assay, RTV-014397; format: cell-based, HIV; conditions: patient 014397; for decrease in susceptibility: 245 and 103
From the text: as §1, §2, §3, §4
A resistance test vector was constructed as described in Example 1 from a virus sample obtained from patient 014397. The prior and current treatment regimens are unknown. Isolation of viral RNA and RT/PCR was used to generate a patient derived segment (PDS) that comprised viral sequences coding for all of PR and aa 1-313 of RT. The PDS were inserted into an indicator gene viral vector to generate a resistance test vector designated RTV-014397. RTV-014397 was then tested in a phenotypic assay to determine accurately and quantitatively the level of susceptibility to a panel of anti-retroviral drugs. […]

RTV-K103N/I135T/V245E = assay: Phenotypic susceptibility assay, RTV-K103N/I135T/V245E; format: cell-based, HIV-1; conditions: site-directed K103N + I135T + V245E
From the text: as §1, §2, §3, §4
as §5, with “V245E (RTV-K103N/I135T/V245E)” for “V245T (RTV-K103N/I135T/V245T)”

Compound | drug-dependent stimulation of viral replication (RTV-013522/270I) | reductions in susceptibility compared to wild type control RTV (RTV-013522/270I) | drug-dependent stimulation of viral replication (RTV-K103N/I135T/V245T) | reductions in susceptibility compared to wild type control RTV (RTV-K103N/I135T/V245T) | drug-dependent stimulation of viral replication [1] | reductions in susceptibility compared to wild type control RTV [1] | drug-dependent stimulation of viral replication (RTV-1033-3/181C) | reduction in susceptibility compared to wild type control RTV (RTV-1033-3/181C) | drug-dependent stimulation of viral replication (RTV-014397) | decrease in susceptibility (RTV-014397) | drug-dependent stimulation of viral replication (RTV-K103N/I135T/V245E) | reductions in susceptibility compared to wild type control RTV (RTV-K103N/I135T/V245E)
O=C1Nc2ccc(Cl)cc2[C@@](C#CC2CC2)(C(F)(F)F)O1 [efavirenz] | no longer exhibiting negative inhibition | 8 fold | ~25% | 174 fold | ~30% | 85 fold | ~100% | > 450 fold | ~70% | > 450 fold | no drug-dependent stimulation and not | 93 fold
CC(C)Nc1cccnc1N1CCN(C(=O)c2cc3cc(NS(C)(=O)=O)ccc3[nH]2)CC1 [delavirdine] | no longer exhibiting negative inhibition | 40 fold | ~50% | > 250 fold | ~40% | 7 fold |  | > 250 fold | ~100% | > 250 fold | ~20% | 169 fold
Cc1ccnc2c1NC(=O)c1cccnc1N2C1CC1 [nevirapine] | no longer exhibiting negative inhibition | 14 fold | ~40% | 594 fold and 544 fold | ~80% | > 600 fold |  | > 600 fold | ~100% | > 600 fold | ~15% | 244 fold
